As a reminder, the IC50 is the midpoint of a concentration-inhibition curve. A word on the Ki: it is a dissociation constant, usually derived from enzyme kinetics or from competition with a known ligand.

A short description of assay [1]: Inhibition of rat intestinal maltase using maltose as substrate incubated for 30 mins by glucose-oxidase method.
For assay [2], the target named is T1, Sucrase-isomaltase, intestinal (Rattus norvegicus, UniProt P23739). Kind of assay: Inhibition of rat intestinal sucrase using sucrose as substrate incubated for 30 mins by glucose-oxidase method.
T1 sequence (P23739 1-1013 limits assumed): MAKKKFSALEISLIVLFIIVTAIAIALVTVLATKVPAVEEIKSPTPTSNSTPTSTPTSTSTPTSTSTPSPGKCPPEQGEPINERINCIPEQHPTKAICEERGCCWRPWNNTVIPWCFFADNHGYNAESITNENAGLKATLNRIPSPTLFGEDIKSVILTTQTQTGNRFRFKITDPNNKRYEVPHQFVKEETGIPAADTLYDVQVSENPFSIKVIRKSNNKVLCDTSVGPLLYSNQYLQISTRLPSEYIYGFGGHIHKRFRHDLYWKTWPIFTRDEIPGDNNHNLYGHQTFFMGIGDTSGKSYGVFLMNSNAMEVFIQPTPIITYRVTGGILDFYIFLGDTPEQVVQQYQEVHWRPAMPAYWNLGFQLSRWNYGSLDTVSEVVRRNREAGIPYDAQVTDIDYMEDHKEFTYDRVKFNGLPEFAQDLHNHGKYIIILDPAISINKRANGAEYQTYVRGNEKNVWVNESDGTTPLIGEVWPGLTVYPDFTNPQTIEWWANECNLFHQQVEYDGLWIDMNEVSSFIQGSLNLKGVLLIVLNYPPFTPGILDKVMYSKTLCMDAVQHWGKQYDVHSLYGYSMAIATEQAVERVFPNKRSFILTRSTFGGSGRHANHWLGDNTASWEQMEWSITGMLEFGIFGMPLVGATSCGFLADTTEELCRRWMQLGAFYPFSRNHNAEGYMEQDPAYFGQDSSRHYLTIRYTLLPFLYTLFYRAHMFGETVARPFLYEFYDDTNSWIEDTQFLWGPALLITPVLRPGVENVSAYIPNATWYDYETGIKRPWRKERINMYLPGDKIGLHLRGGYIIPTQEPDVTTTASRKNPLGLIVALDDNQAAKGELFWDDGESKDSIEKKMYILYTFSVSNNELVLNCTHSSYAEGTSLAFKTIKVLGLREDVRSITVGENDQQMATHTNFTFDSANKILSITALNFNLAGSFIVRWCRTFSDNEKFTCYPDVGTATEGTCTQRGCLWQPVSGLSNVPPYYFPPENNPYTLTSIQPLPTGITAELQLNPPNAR
T1 sequence (P23739 1014-1841 limits assumed): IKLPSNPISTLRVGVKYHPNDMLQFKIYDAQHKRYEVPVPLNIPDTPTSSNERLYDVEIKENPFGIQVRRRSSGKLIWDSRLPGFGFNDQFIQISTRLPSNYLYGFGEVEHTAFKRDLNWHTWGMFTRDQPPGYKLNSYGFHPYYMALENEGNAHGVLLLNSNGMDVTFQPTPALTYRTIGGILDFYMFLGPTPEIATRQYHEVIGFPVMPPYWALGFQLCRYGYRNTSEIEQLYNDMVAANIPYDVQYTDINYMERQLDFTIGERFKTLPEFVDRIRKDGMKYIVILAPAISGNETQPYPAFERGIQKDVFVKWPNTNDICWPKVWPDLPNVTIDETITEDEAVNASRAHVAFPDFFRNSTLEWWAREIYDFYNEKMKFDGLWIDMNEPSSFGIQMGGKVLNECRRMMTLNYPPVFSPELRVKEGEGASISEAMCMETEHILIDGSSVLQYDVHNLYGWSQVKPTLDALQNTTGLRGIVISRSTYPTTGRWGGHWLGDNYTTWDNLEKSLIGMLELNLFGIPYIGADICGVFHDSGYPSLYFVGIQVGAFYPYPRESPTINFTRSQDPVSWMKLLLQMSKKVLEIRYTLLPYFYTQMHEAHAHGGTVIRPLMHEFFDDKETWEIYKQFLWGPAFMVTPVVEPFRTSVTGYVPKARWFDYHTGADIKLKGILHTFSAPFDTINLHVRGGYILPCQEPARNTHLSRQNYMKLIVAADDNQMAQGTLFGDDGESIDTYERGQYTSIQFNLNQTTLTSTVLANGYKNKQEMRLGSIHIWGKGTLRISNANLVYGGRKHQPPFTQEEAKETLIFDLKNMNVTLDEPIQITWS
Assay [3] is described as follows: Competitive inhibition of rat intestinal maltase using maltose as substrate incubated for 30 mins by Lineweaver-Burk plot analysis.
The target in assay [4] is T1, Sucrase-isomaltase, intestinal. Kind of assay: Competitive inhibition of rat intestinal sucrase using sucrose as substrate incubated for 30 mins by Lineweaver-Burk plot analysis.
Assay [5] can be described thus: Cytotoxicity against human HELF cells by MTT assay. Format: cell-based. A general note: Tetrazolium assays rely on reduction of a dye to a coloured formazan, in cell work by metabolically active cells.
The target of assay [6] is Sucrase-isomaltase, intestinal (Rattus norvegicus) (UniProt P23739). The assay is described as follows: Potency index, ratio of acarbose IC50 to compound IC50 for rat intestinal sucrase.
Sequence of Sucrase-isomaltase, intestinal (Rattus norvegicus) (P23739 1-1013 limits assumed): as the sequence (P23739 1-1013 limits assumed) above
Sequence of Sucrase-isomaltase, intestinal (Rattus norvegicus) (P23739 1014-1841 limits assumed): as the sequence (P23739 1014-1841 limits assumed) above

Molecules are shown by their SMILES.

For `OC[C@@H]1[C@@H](O)[C@H](O)C[S+]1C[C@@H](O)[C@H](O)[C@H](O)[C@@H](O)CO` (some centres undefined), the IC50 in assay [1] was 2000 nM; in assay [2] it was 300 nM.
For `OC[C@@H]1[C@@H](O)[C@H](O)C[S+]1C[C@@H](O)[C@H](OCc1ccc(C(F)(F)F)cc1)[C@H](O)[C@@H](O)CO.[Cl-]` (some centres undefined), the IC50 is 10000 nM in assay [1] and 4600 nM in assay [2]. For the same molecule, the results for the Ki in assay [3] and in assay [4] were 0.74 µg/mL and 786 nM, respectively.
Regarding `O=[N+]([O-])c1cccc(CO[C@H]([C@H](O)[C@@H](O)CO)[C@H](O)C[S+]2C[C@@H](O)[C@H](O)[C@H]2CO)c1` (some centres undefined), the figures for the IC50 in assay [1] and in assay [2] were 6700 nM and 210 nM, respectively.
`O=[N+]([O-])c1ccccc1CO[C@H]([C@H](O)[C@@H](O)CO)[C@H](O)C[S+]1C[C@@H](O)[C@H](O)[C@H]1CO.[Cl-]` (some centres undefined): the concentration for half-maximal inhibition (IC50) is 3500 nM in assay [1], 320 nM in assay [2] and greater than 500000 nM in assay [5]. The Ki was 0.6 µg/mL in assay [3] and 185 nM in assay [4].
Take `OC[C@@H]1[C@@H](O)[C@H](O)C[S+]1C[C@@H](O)[C@H](OCc1cccc(C(F)(F)F)c1)[C@H](O)[C@@H](O)CO.[Cl-]` (some centres undefined): the concentration for half-maximal inhibition (IC50) in assay [1] came out at 9600 nM; in assay [2], 450 nM. Also, the figures for the Ki in assay [3] and in assay [4] were 0.66 µg/mL and 354 nM, respectively.
Take `OC[C@@H]1[C@@H](O)[C@H](O)C[S+]1C[C@@H](O)[C@H](OCc1ccccc1C(F)(F)F)[C@H](O)[C@@H](O)CO.[Cl-]` (some centres undefined): the half-inhibitory concentration (IC50) is 2500 nM in assay [1], 200 nM in assay [2] and greater than 500000 nM in assay [5]. The values for the Ki in assay [3] and in assay [4] were 0.28 µg/mL and 216 nM, respectively. In assay [6], the Ratio IC50 came to 10.
Regarding `OC[C@@H]1[C@@H](O)[C@H](O)C[S+]1C[C@@H](O)[C@H](OCc1ccccc1)[C@H](O)[C@@H](O)CO` (some centres undefined), the concentration for half-maximal inhibition (IC50) is 5300 nM in assay [1] and 1900 nM in assay [2].
Take `O=[N+]([O-])c1ccc(CO[C@H]([C@H](O)[C@@H](O)CO)[C@H](O)C[S+]2C[C@@H](O)[C@H](O)[C@H]2CO)cc1` (some centres undefined): the figures for the IC50 in assay [1] and in assay [2] were 32400 nM and 4200 nM, respectively.
As for `CCO[C@H]([C@H](O)[C@@H](O)CO)[C@H](O)C[S+]1C[C@@H](O)[C@H](O)[C@H]1CO` (some centres undefined), the results for the IC50 in assay [1] and in assay [2] were 9500 nM and 270 nM, respectively.
In the same order, the values of `OC[C@@H]1[C@@H](O)[C@H](O)C[S+]1C[C@@H](O)[C@H](OCc1ccc(Cl)cc1)[C@H](O)[C@@H](O)CO` (some centres undefined) are 18300 nM and 5600 nM.
For `OC[C@@H]1[C@@H](O)[C@H](O)C[S+]1C[C@@H](O)[C@H](OCc1cccc(Cl)c1)[C@H](O)[C@@H](O)CO` (some centres undefined) the same measures were 5200 nM and 510 nM.
On to `OC[C@@H]1[C@@H](O)[C@H](O)C[S+]1C[C@@H](O)[C@H](OCc1ccccc1Cl)[C@H](O)[C@@H](O)CO.[Cl-]` (some centres undefined), for which the half-inhibitory concentration (IC50) in assay [1] is 8200 nM; in assay [2], 700 nM; in assay [5], greater than 500000 nM. Further, the Ki was 0.45 µg/mL in assay [3] and 210 nM in assay [4].
Turning to `OCC(CO)N[C@H]1C[C@](O)(CO)[C@@H](O)[C@H](O)[C@H]1O` [VOGLIBOSE], the 50% inhibitory concentration (IC50) in assay [2] is 300 nM.
